# Experimental data taken from US20040110802A1, “Antibacterial benzoic acid derivatives” (priority 2002, published 2004).
# Tested on: SAUR 9218
# Experiment: MIC Test Method, standard agar dilution
# Type: cell-based
# Conditions: agar dilution, Mueller Hinton agar, incubated overnight at 35° C., lowest concentration that inhibits visible growth; for MIC: read-out: SAUR 9218 MIC
# Description: The in vitro MiCs of test compounds were determined by a standard agar dilution method. A stock drug solution of each analog was prepared in the preferred solvent, usually DMSO:H2O (1:3). Serial 2-fold dilutions of each sample are made using 1.0 ml aliquots of sterile distil]ed water. To each 1.0 ml aliquot of drug was added 9 ml of molten Mueller Hinton agar medium. The drug-supplemented agar was mixed, poured into 15×100 mm petri dishes, and allowed to solidify and dry prior to inoculation.
# Vials of each of the test organisms are maintained frozen in the vapor phase of a liquid nitrogen freezer. Test cultures are grown overnight at 35° C. on the medium appropriate for the organism. Colonies are harvested with a sterile swab, and cell suspensions are prepared in Trypticase Soy broth (TSB) to equal the turbidity of a 0.5 McFamland standard. A 1:20 dilution of each suspension was made in TSB. The plates containing the drug supplemented agar are inoculated with a 0.001 ml drop of the cell suspension using a Steers replicator, yielding approximately 10^4 to 10^5 cells per spot. The plates are incubated overnight at 35° C.
# Following incubation the Minimum Inhibitory Concentration (MIC μg/ml), the lowest concentration of drug that inhibits visible growth of the organism, was read and recorded.
MIC [µg/mL],SAUR 9218 MIC [µg/mL],SMILES
1,–,COC(=O)CCCCCCC(=O)Nc1cccc2cc(C(=O)Nc3ccc(C#N)cc3C(=O)O)[nH]c12
–,128,Cc1sc(C(=O)Nc2ccc(C#N)cc2C(=O)O)cc1S(=O)(=O)N(C)C(C)C(O)c1ccccc1 (stereo not shown) [drawing 960]
0.125,–,N#Cc1ccc(NC(=O)c2cc(-c3ccc4c(c3)OCO4)on2)c(C(=O)O)c1
32,–,Cc1ccccc1-c1cnc(C(=O)Nc2ccc(C#N)cc2C(=O)O)cn1
1,–,CC(=O)Nc1ccc2cc(C(=O)Nc3ccc(C#N)cc3C(=O)O)n(C)c2c1
2,–,Cc1sc(C(=O)Nc2ccc(Br)cc2C(=O)O)cc1S(=O)(=O)N(C)c1ccc(Cl)cc1
0.125,–,Cc1ccccc1-c1cccc2cc(C(=O)Nc3ccc(C#N)cc3C(=O)O)n(C)c12
2,–,N#Cc1ccc(NC(=O)c2ncc(-c3ccco3)o2)c(C(=O)O)c1
2,–,CCCCCn1c(C(=O)Nc2ccc(Br)cc2C(=O)O)cc2ccccc21
0.5,–,Cn1c(C(=O)Nc2ccc(C#N)cc2C(=O)O)cc2c(Br)cc(Br)c(N)c21
0.125,–,Cn1c(C(=O)Nc2cccc3cc(C(=O)Nc4ccc(C#N)cc4C(=O)O)n(C)c23)cc2ccccc21
1,–,N#Cc1ccc(NC(=O)c2cc3ccccc3cn2)c(C(=O)O)c1
8,–,Cc1sc(C(=O)Nc2ccc(C#N)cc2C(=O)O)cc1S(=O)(=O)N1CCC(C)CC1
1,–,O=C(Nc1ccc(Br)cc1-c1noc(=O)[nH]1)c1cc(-c2ccccc2)on1
16,–,O=C(Nc1ccc(Br)cc1C(=O)O)c1ccc(-c2cccc(C(F)(F)F)c2)o1
128,–,COCOCC(O)C(Cc1cnc(C(=O)Nc2ccc(Br)cc2C(=O)O)cn1)OC (stereo not shown)
0.5,–,Cn1c(C(=O)Nc2ccc(C#N)cc2C(=O)O)cc2cccc(Br)c21
> 128,–,O=C(Nc1ccc(Br)cc1C(=O)O)c1ccc[nH]1
4,–,N#Cc1ccc(NC(=O)c2cc(CN=[N+]=[N-])on2)c(C(=O)O)c1
2,–,COc1ccc(-c2cnc(C(=O)Nc3ccc(Br)cc3C(=O)O)o2)cc1
0.5,–,CCCCSc1cnc(C(=O)Nc2ccc(Cl)cc2C(=O)O)cn1
16,–,COCCn1c(C(=O)Nc2ccc(Br)cc2C(=O)O)cc2ccccc21
0.25,–,COc1cccc2[nH]c(C(=O)Nc3ccc(C#N)cc3C(=O)O)cc12

MIC [µg/mL],SAUR 9218 MIC [µg/mL],SMILES
1,–,N#Cc1ccc(NC(=O)c2ncc(-c3ccccc3)s2)c(C(=O)O)c1
16,–,O=C(Nc1ccc(Br)cc1C(=O)O)c1cncc(SCc2ccccc2)n1
0.5,–,CCCCCCOc1ccccc1-c1cc(C(=O)Nc2ccc(C#N)cc2C(=O)O)no1
32,–,N#Cc1ccc(NC(=O)c2ccccn2)c(C(=O)O)c1
128,–,COc1ccc2[nH]c(C(=O)Nc3ccc(C#N)cc3C(=O)O)cc2c1
> 128,–,CS(=O)(=O)c1ncc(N2CCOCC2)c(C(=O)Nc2ccc(Br)cc2C(=O)O)n1
0.5,–,CCS(=O)(=O)Nc1cccc2cc(C(=O)Nc3ccc(C#N)cc3C(=O)O)n(C)c12
4,–,O=C(Nc1ccc(Br)cc1C(=O)O)c1cc(OCc2ccccc2)ccn1
128,–,N#Cc1ccc(NC(=O)c2cnccn2)c(C(=O)O)c1
0.25,–,CCOCC(O)COc1cccc2cc(C(=O)Nc3ccc(C#N)cc3C(=O)O)n(C)c12 (stereo not shown)
0.5,–,Cn1c(C(=O)Nc2ccc(C#N)cc2C(=O)O)cc2cccc(NS(C)(=O)=O)c21
0.125,–,Cn1c(C(=O)Nc2ccc(C#N)cc2C(=O)O)cc2cccc(OCc3cccnc3)c21
0.125,–,CC(C)CCSc1cnc(C(=O)Nc2ccc(C#N)cc2C(=O)O)cn1
16,–,Cc1c(S(=O)(=O)NC2Cc3ccccc3C2)csc1C(=O)Nc1ccc(Br)cc1C(=O)O
1,–,CC(=O)Nc1ccc(S(=O)(=O)N(c2ccc3cc(C(=O)Nc4ccc(C#N)cc4C(=O)O)n(C)c3c2)S(=O)(=O)c2ccc(NC(C)=O)cc2)cc1
32,–,Cc1sc(C(=O)Nc2ccc(C#N)cc2C(=O)O)cc1S(=O)(=O)N1CCCC2CCCCC21 (stereo not shown)
1,–,CCSc1cncc(C(=O)Nc2ccc(C#N)cc2C(=O)O)c1
64,–,Cc1ccc(C(=O)Nc2ccc(Br)cc2C(=O)O)s1
2,–,Cn1c(C(=O)Nc2ccc(C#N)cc2C(=O)O)cc2ccc(NC(=O)c3ccc(OC(F)(F)F)cc3)cc21
0.015,–,CC(=O)Nc1cccc(-c2ccc3c(C(=O)Nc4ccc(C#N)cc4C(=O)O)noc3c2)c1
0.125,–,Cc1nn(C)c(Cl)c1S(=O)(=O)Nc1cccc2cc(C(=O)Nc3ccc(C#N)cc3C(=O)O)n(C)c12
2,–,CC(=O)Nc1ccc2onc(C(=O)Nc3ccc(C#N)cc3C(=O)O)c2c1
32,–,Cc1sc(C(=O)Nc2ccc(C#N)cc2C(=O)O)cc1S(=O)(=O)N(Cc1ccccc1)C(C)C

MIC [µg/mL],SAUR 9218 MIC [µg/mL],SMILES
1,–,CN(c1ccc(Cl)cc1)S(=O)(=O)c1cncc(C(=O)Nc2ccc(Br)cc2C(=O)O)c1
0.125,–,Cn1c(C(=O)Nc2ccc(I)cc2C(=O)O)cc2cccc(S(=O)(=O)c3ccccc3)c21
2,–,CCCCOc1ccc(C(=O)Nc2cccc3cc(C(=O)Nc4ccc(C#N)cc4C(=O)O)[nH]c23)cc1
32,–,CC1(C)OCC(/C=C/c2cnc(C(=O)Nc3ccc(Br)cc3C(=O)O)cn2)O1 (stereo not shown)
2,–,N#Cc1ccc(NC(=O)c2cc(-c3ccccc3OCC3CCCCO3)on2)c(C(=O)O)c1 (stereo not shown)
0.125,–,Cl.Cn1c(C(=O)Nc2ccc(C#N)cc2C(=O)O)cc2cccc(OCC(O)CNc3ccccc3)c21 (stereo not shown)
0.03,–,N#Cc1ccc(NC(=O)c2noc3ccc(S(=O)(=O)N4CCc5cc(Cl)ccc54)cc23)c(C(=O)O)c1
128,–,Cc1sc(C(=O)Nc2ccc(C#N)cc2C(=O)O)cc1S(=O)(=O)N1CCCC1CN1CCCC1 (stereo not shown)
0.25,–,CC(C)CSc1cnc(C(=O)Nc2ccc(C#N)cc2C(=O)O)cn1
4,–,COCCOCCOCC(=O)Nc1cccc2cc(C(=O)Nc3ccc(C#N)cc3C(=O)O)[nH]c12
2,–,CC(C)CC(=O)Nc1cccc2cc(C(=O)Nc3ccc(C#N)cc3C(=O)O)[nH]c12
0.125,–,N#Cc1ccc(NC(=O)c2noc3ccc(NS(=O)(=O)Cc4ccccc4)cc23)c(C(=O)O)c1
0.03,–,Cn1c(C(=O)Nc2ccc(C#N)cc2C(=O)O)cc2cccc(C(OOSc3cnc(Cl)c(Br)c3)S(=O)(=O)c3cnc(Cl)c(Br)c3)c21 (stereo not shown)
0.125,–,N#Cc1ccc(NC(=O)c2noc3cc(-c4ccccc4)ccc23)c(C(=O)O)c1
1,–,Cc1sc(C(=O)Nc2ccc(Br)cc2C(=O)O)cc1S(=O)(=O)N1CCc2ccc(Cl)cc21
8,–,O=C(O)c1cc(Br)ccc1NC(=O)c1cccc2c1CCN(Cc1ccccc1)S2(=O)=O
16,–,N#Cc1ccc(NC(=O)c2cncc(-c3cnccn3)c2)c(C(=O)O)c1
1,–,N#Cc1ccc(NC(=O)c2cc3cccc(NC(=O)CC4CCCC4)c3[nH]2)c(C(=O)O)c1
4,–,COc1cccc2cc(C(=O)Nc3ccc(C#N)cc3C(=O)O)oc12
2,–,Cc1sc(C(=O)Nc2ccc(C#N)cc2C(=O)O)cc1S(=O)(=O)N1CCCC(C)C1 (stereo not shown)
1,–,O=C(Nc1ccc(Br)cc1C(=O)O)c1ccc(SC2CCOCC2)nc1
64,–,COCC1CCCN1S(=O)(=O)c1cc(C(=O)Nc2ccc(C#N)cc2C(=O)O)sc1C (stereo not shown)
0.125,–,N#Cc1ccc(NC(=O)c2noc3ccc(NS(=O)(=O)c4ccccc4)cc23)c(C(=O)O)c1

MIC [µg/mL],SAUR 9218 MIC [µg/mL],SMILES
8,–,C=CCN(C1CCCC1)S(=O)(=O)c1cc(C(=O)Nc2ccc(C#N)cc2C(=O)O)sc1C
16,–,Cc1sc(C(=O)Nc2ccc(C#N)cc2C(=O)O)cc1S(=O)(=O)N(CCO)Cc1ccccc1
8,–,COc1cnc(C(=O)Nc2ccc(C#N)cc2C(=O)O)cn1
0.25,–,N#Cc1ccc(NC(=O)c2nc3ccccc3s2)c(C(=O)O)c1
8,–,Cn1cccc1-c1cncc(C(=O)Nc2ccc(C#N)cc2C(=O)O)c1
1,–,COc1ccc(CCCC(=O)Nc2cccc3cc(C(=O)Nc4ccc(C#N)cc4C(=O)O)[nH]c23)cc1
16,–,N#Cc1ccc(NC(=O)c2cc3cc(OCc4ccccc4)ccc3[nH]2)c(C(=O)O)c1
64,–,Cc1c(S(=O)(=O)Nc2ccc(N3CCOCC3)cc2)csc1C(=O)Nc1ccc(Br)cc1C(=O)O
0.06,–,N#Cc1ccc(NC(=O)c2noc3c2CCc2ccccc2-3)c(C(=O)O)c1
8,–,O=C(Nc1ccc(Br)cc1C(=O)O)c1ccc2c(c1)C(=O)N(CC1CCCO1)C2=O (stereo not shown)
2,–,N#Cc1ccc(NC(=O)c2cc3ccccc3[nH]2)c(C(=O)O)c1
0.125,–,Cc1noc(C)c1-c1ccc2c(C(=O)Nc3ccc(C#N)cc3C(=O)O)noc2c1
> 128,–,Cc1c(S(=O)(=O)NC2CCN(Cc3ccccc3)CC2)csc1C(=O)Nc1ccc(Br)cc1C(=O)O
0.5,–,C[C@@H](CBr)COc1ccccc1-c1cc(C(=O)Nc2ccc(C#N)cc2C(=O)O)no1
32,–,CCCCN(CCO)S(=O)(=O)c1cc(C(=O)Nc2ccc(C#N)cc2C(=O)O)sc1C
1,–,N#Cc1ccc(NC(=O)c2noc3cc(Cl)ccc23)c(C(=O)O)c1
2,–,O=C(Nc1ccc(Br)cc1C(=O)O)c1ncc(-c2ccc(F)cc2)o1
16,–,O=C(Nc1ccc(Br)cc1C(=O)O)c1ccc2c(c1)OCO2
4,–,O=C(O)c1cc(Br)ccc1NC(=O)c1cc2ccccc2n1CC1CCCCC1
> 128,–,Cc1noc(C)c1-c1cnc(C(=O)Nc2ccc(C#N)cc2C(=O)O)cn1
0.125,–,O=C(Nc1ccc(Br)cc1C(=O)O)c1nnc(SCc2ccccc2)s1

SMILES,MIC [µg/mL],SAUR 9218 MIC [µg/mL]
CNS(=O)(=O)c1ccc2onc(C(=O)Nc3ccc(C#N)cc3C(=O)O)c2c1,0.06,–
